Biological target: T1, TRPV3 in KU-19-19 cells (Homo sapiens, UniProt Q8NET8)
T1 construct: host or cells: KU-19-19
T1 sequence (Q8NET8 1-790): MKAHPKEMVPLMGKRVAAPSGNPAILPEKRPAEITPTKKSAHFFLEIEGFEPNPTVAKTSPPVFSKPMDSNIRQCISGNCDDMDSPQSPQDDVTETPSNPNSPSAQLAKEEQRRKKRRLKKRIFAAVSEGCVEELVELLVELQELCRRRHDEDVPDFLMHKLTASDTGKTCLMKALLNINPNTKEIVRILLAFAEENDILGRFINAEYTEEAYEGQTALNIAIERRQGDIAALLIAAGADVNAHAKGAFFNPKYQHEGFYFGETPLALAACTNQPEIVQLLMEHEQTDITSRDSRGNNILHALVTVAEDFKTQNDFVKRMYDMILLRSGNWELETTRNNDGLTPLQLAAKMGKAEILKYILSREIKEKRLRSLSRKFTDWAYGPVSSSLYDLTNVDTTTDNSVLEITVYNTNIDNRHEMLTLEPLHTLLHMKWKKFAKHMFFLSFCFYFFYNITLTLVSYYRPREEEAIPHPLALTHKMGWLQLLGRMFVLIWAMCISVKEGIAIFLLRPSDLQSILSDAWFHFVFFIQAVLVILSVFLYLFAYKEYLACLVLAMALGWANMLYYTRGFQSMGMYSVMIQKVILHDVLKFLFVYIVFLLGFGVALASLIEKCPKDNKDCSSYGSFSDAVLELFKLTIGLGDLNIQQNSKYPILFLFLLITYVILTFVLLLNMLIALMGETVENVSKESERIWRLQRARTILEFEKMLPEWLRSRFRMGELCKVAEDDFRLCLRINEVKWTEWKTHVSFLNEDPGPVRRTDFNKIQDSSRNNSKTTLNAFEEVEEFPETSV
Test: whole-cell patch-clamp recordings in KU-19-19 cells
Assay type: cell-based
Description: Supplementation of the cellular cholesterol content in KU-19-19 cells was performed by adding cholesterol-loaded methyl-β-cyclodextrin (MβCD) to the cells. Cholesterol was dissolved in ethanol (20 mg/mL) by heating at 65 °C for 15 minutes. The cholesterol solution was then added dropwise to a 250 mM MβCD solution prepared in phosphate-buffered solution (PBS; Sigma Aldrich) at a 1:4 (v/v) ratio, yielding a stock containing 200 mM MβCD-cholesterol. KU-19-19 cells were incubated for 15 minutes at 37 °C in HBS containing 2.5 mM MβCD-cholesterol. As a control, KU-19-19 cells were incubated in HBS without MβCD-cholesterol supplement under the same conditions. […]
Fig. 3 TRPV3 is functionally expressed in bladder cancer cells. (A–D) Activation of TRPV3 in KU-19-19 (A, B) and CAL-29 (C, D) bladder cancer cells by AV3-1, assessed by fura-2-based Ca^2+ assays. […] (B, D) Quantification of peak [Ca^2+]ᵢ responses from KU-19-19 (B) and CAL-29 (D) cells under the indicated treatment conditions. Statistical significance was determined using one-way ANOVA with Tukey post hoc analysis; ∗P < .05. […] Current amplitudes were recorded using voltage ramps from −100 mV to +100 mV (500-millisecond duration) such as in F and expressed as current density (pA/pF) measured at +100 mV and −100 mV. […] Statistical significance was determined using Kruskal-Wallis ANOVA followed by Conover test; ∗P < .05. […]

COC(=O)C12CN(Cc3ccccc3)CC1(C(=O)OC)CN(Cc1ccccc1)C2 (centres unmarked) [AV3-1]
currents under cholesterol-loaded conditions compared with untreated cells (50 μM AV3-1, KU-19-19 cells preincubated with 2.5 mM MβCD-cholesterol): substantially larger currents | TRPV3 currents in KU-19-19 cells (50 μM AV3-1, repeated applications): robustly and reproducibly activated TRPV3 currents

— PMC12881674, “Activation of TRPV3 channels in bladder cancer cells stimulates ATP release” (Molecular Pharmacology, 2025)
